Measured values from ChEMBL document CHEMBL1201862, “PubChem BioAssay data set” (2004).
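Exposure lasted 48 hours, with cells grown in 96-well plates and compounds tested at five concentrations. GI50 = concentration required for 50% inhibition of growth.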 Activity calls are given as the source filed them. Rule as the data show it: active = GI50 up to about 1.1 µM and inactive = higher.

What was measured:
Experiment in all cases: NCI-60 cell line screen, 48 h
SK-MEL-28 = test system: SK-MEL-28
OVCAR-8 = test system: OVCAR-8
A498 = test system: A498
HT-29 = test system: HT-29
SR = test system: SR
Malme-3M = test system: Malme-3M
NCI-H460 = test system: NCI-H460
MOLT-4 = test system: MOLT-4
T47D = test system: T47D
NCI-H23 = test system: NCI-H23
HCC 2998 = test system: HCC 2998
HCT-116 = test system: HCT-116
M14 = test system: M14
DU-145 = test system: DU-145
SN12C = test system: SN12C
SNB-19 = test system: SNB-19
BT-549 = test system: BT-549
RXF 393 = test system: RXF 393
SF-539 = test system: SF-539
NCI-H522 = test system: NCI-H522
MCF7 = test system: MCF7
UACC-62 = test system: UACC-62
MDA-N = test system: MDA-N
TK-10 = test system: TK-10
A549 = test system: A549
HOP-92 = test system: HOP-92
UACC-257 = test system: UACC-257
SNB-75 = test system: SNB-75
MDA-MB-435 = test system: MDA-MB-435
MDA-MB-231 = test system: MDA-MB-231
CAKI-1 = test system: CAKI-1
Hs-578T = test system: Hs-578T
SK-MEL-5 = test system: SK-MEL-5
OVCAR-4 = test system: OVCAR-4
SF-295 = test system: SF-295
HOP-62 = test system: HOP-62
EKVX = test system: EKVX
SW-620 = test system: SW-620
786-0 = test system: 786-0
SK-MEL-2 = test system: SK-MEL-2
LOX IMVI = test system: LOX IMVI
K562 = test system: K562
HL-60 = test system: HL-60
U-251 = test system: U-251
SK-OV-3 = test system: SK-OV-3
IGROV-1 = test system: IGROV-1
UO-31 = test system: UO-31
HCT-15 = test system: HCT-15
NCI-H226 = test system: NCI-H226
RPMI-8226 = test system: RPMI-8226
OVCAR-3 = test system: OVCAR-3
COLO 205 = test system: COLO 205
ACHN = test system: ACHN
CCRF-CEM = test system: CCRF-CEM
SF-268 = test system: SF-268
PC-3 = test system: PC-3
NCI/ADR-RES = test system: NCI/ADR-RES
OVCAR-5 = test system: OVCAR-5
KM12 = test system: KM12

With `C=CCn1c(=O)ccn(/C(=C/C(=O)OCC)C(=O)OCC)c1=O` as the molecule, how does the GI50 (SK-MEL-28) read?
Its GI50 is 15.2 µM (inactive).

And the GI50 (OVCAR-8)?
The GI50 was 15.6 µM (inactive).

And the GI50 (A498)?
Its GI50 is 17.9 µM (inactive).

What about the GI50 (HT-29) of the same molecule?
Its GI50 is 10.4 µM (inactive).

What about the GI50 (SR) of the same molecule?
The GI50 was 6.4 µM (inactive).

What about the GI50 (Malme-3M) of the same molecule?
Its GI50 is 11 µM (inactive).

And the GI50 (NCI-H460)?
Its GI50 is 16.1 µM (inactive).

What about the GI50 (MOLT-4) of the same molecule?
Its GI50 is 2.99 µM (inactive).

And the GI50 (T47D)?
The GI50 was 5.13 µM (inactive).

What about the GI50 (NCI-H23) of the same molecule?
The GI50 was 17.1 µM (inactive).

And the GI50 (HCC 2998)?
Its GI50 is 16.5 µM (inactive).

What about the GI50 (HCT-116) of the same molecule?
Its GI50 is 7.1 µM (inactive).

What about the GI50 (M14) of the same molecule?
The GI50 was 13.5 µM (inactive).

And the GI50 (DU-145)?
The GI50 was 21.7 µM (inactive).

What about the GI50 (SN12C) of the same molecule?
The GI50 was 8.73 µM (inactive).

What about the GI50 (SNB-19) of the same molecule?
Its GI50 is 29.4 µM (inactive).

And the GI50 (BT-549)?
The GI50 was 15.7 µM (inactive).

And the GI50 (RXF 393)?
Its GI50 is 14.1 µM (inactive).

And the GI50 (SF-539)?
The GI50 was 24 µM (inactive).

And the GI50 (NCI-H522)?
Its GI50 is 2.44 µM (inactive).

And the GI50 (MCF7)?
Its GI50 is 3.94 µM (inactive).

And the GI50 (UACC-62)?
The GI50 was 15.7 µM (inactive).

And the GI50 (MDA-N)?
Its GI50 is 15.5 µM (inactive).

And the GI50 (TK-10)?
Its GI50 is 11.9 µM (inactive).

What about the GI50 (A549) of the same molecule?
The GI50 was 17.5 µM (inactive).

What about the GI50 (HOP-92) of the same molecule?
Its GI50 is 2.36 µM (inactive).

What about the GI50 (UACC-257) of the same molecule?
Its GI50 is 15.2 µM (inactive).

And the GI50 (SNB-75)?
The GI50 was 16.1 µM (inactive).

What about the GI50 (MDA-MB-435) of the same molecule?
The GI50 was 12.8 µM (inactive).

What about the GI50 (MDA-MB-231) of the same molecule?
Its GI50 is 9.82 µM (inactive).

What about the GI50 (CAKI-1) of the same molecule?
Its GI50 is 1.91 µM (inactive).

And the GI50 (Hs-578T)?
Its GI50 is 22.5 µM (inactive).

And the GI50 (SK-MEL-5)?
The GI50 was 15.1 µM (inactive).

And the GI50 (OVCAR-4)?
The GI50 was 12.4 µM (inactive).

And the GI50 (SF-295)?
Its GI50 is > 52.4 µM (inactive).

And the GI50 (HOP-62)?
Its GI50 is 20.9 µM (inactive).

What about the GI50 (EKVX) of the same molecule?
The GI50 was 17.2 µM (inactive).

What about the GI50 (SW-620) of the same molecule?
Its GI50 is 2.18 µM (inactive).

And the GI50 (786-0)?
Its GI50 is 3.48 µM (inactive).

What about the GI50 (SK-MEL-2) of the same molecule?
Its GI50 is 15.7 µM (inactive).

And the GI50 (LOX IMVI)?
Its GI50 is 6.7 µM (inactive).

And the GI50 (K562)?
Its GI50 is 3.08 µM (inactive).

And the GI50 (HL-60)?
The GI50 was 1.76 µM (inactive).

And the GI50 (U-251)?
Its GI50 is 14.4 µM (inactive).

What about the GI50 (SK-OV-3) of the same molecule?
Its GI50 is 25.7 µM (inactive).

And the GI50 (IGROV-1)?
Its GI50 is 15.3 µM (inactive).

And the GI50 (UO-31)?
The GI50 was 14.9 µM (inactive).

And the GI50 (HCT-15)?
The GI50 was 1.83 µM.

What about the GI50 (NCI-H226) of the same molecule?
The GI50 was 13.9 µM (inactive).

And the GI50 (RPMI-8226)?
Its GI50 is 7.94 µM (inactive).

And the GI50 (OVCAR-3)?
The GI50 was 5.66 µM (inactive).

What about the GI50 (COLO 205) of the same molecule?
Its GI50 is 1.74 µM (inactive).

What about the GI50 (ACHN) of the same molecule?
Its GI50 is 3.72 µM (inactive).

And the GI50 (CCRF-CEM)?
The GI50 was 2.08 µM (inactive).

What about the GI50 (SF-268) of the same molecule?
Its GI50 is 19.7 µM (inactive).

What about the GI50 (PC-3) of the same molecule?
Its GI50 is 14.6 µM (inactive).

What about the GI50 (NCI/ADR-RES) of the same molecule?
The GI50 was 21.3 µM (inactive).

What about the GI50 (OVCAR-5) of the same molecule?
Its GI50 is 15.6 µM (inactive).

And the GI50 (KM12)?
The GI50 was 17.5 µM (inactive).
